These results are taken from PMC8881077 (Journal of Enzyme Inhibition and Medicinal Chemistry, 2022).

Data set [1] deals with huAChE-induced Aβ1–40 aggregation (Homo sapiens, UniProt P22303). Nature of the data set: huAChE-induced Aβ1–40 aggregation, ThT assay. It is filed as biochemical. Conditions: inhibitor 100 μM, Aβ1–40 230 μM, Aβ1–40/AChE ratio 100/1.
Data set [2] has as its target T1, Aβ1–42 (Homo sapiens, UniProt P05067). Nature of the data set: Cu^2+-induced Aβ1–42 aggregation, ThT fluorescence. The class given is biochemical. The conditions noted are these: tested compounds and Aβ1–42 25 μM.
Protocol: Curcumin was also tested as a referenced compound.
(§2) The Thioflavin T-based flurometric assay was employed to test the inhibition potency on self-induced/Cu^2+-induced Aβ1-42 aggregation.
For another data set, the target named is T2, ratBuChE (Rattus norvegicus, UniProt Q9JKC1).
T2 construct: BuChE from rat serum or human serum (Sigma Co.); from tissue; host or cells: rat serum
Nature of the data set: ratBuChE inhibition, modified Ellman's method. The class given is biochemical.

Data set [3] deals with T3, huAChE (Homo sapiens, UniProt P22303). Nature of the data set: biochemical. It is filed as biochemical. On the set-up: AChE from 5% rat cortex homogenate or human erythrocytes (Sigma Co.); purchased Sigma Co; host or cells: human erythrocytes. Conditions: for SI: Selectivity Index = IC50 (BuChE)/IC50 (AChE), human enzymes; for IC50: from human erythrocytes, read-out: IC50 ± SD huAChE.
Protocol: (§3) The AChE and BuChE inhibitory activities of the synthesised compounds were evaluated using the Ellman assay with slight modification. AChE from 5% rat cortex homogenate or human erythrocytes (Sigma Co.). BuChE from rat serum or human serum (Sigma Co.).

Data set [4] concerns the target T1, Aβ1–42. Nature of the data set: Self-induced Aβ1–42 aggregation, Thioflavin T fluorescence. The conditions noted are these: tested compounds and Aβ1–42 25 μM. The class given is biochemical.
Description: as §2
Data set [5] addresses T3, huAChE. Nature of the data set: Enzyme kinetic study of huAChE (Lineweaver-Burk). It is filed as biochemical. On the set-up: AChE from human erythrocytes (Sigma Co.); purchased Sigma Co; host or cells: human erythrocytes. The conditions noted are these: for type of AChE inhibition: Lineweaver-Burk plot; for Ki: replots of slope versus concentration, read-out: inhibition constant Ki. An excerpt: An enzyme kinetic study was applied to determine the mechanism of AChE inhibition for compounds 5f and 7k. The lineweaver-Burk double reciprocal plot was used to define the inhibition by plotting the initial velocities of the substrate at the y-axis and increasing concentrations of the substrate at the x-axis[17]^,[19]. […] […].
Figure 3. Enzyme kinetic study on the mechanism of huAChE inhibition by compounds 5f and 7k. […] (D) Representing the plots of slope versus the concentration of 7k for determining the inhibition constants Ki. […] |

Data set [6] has as its system TNF-α production in LPS-induced BV-2 cells. Nature of the data set: TNF-α production in BV-2 cells, ELISA. It is filed as cell-based. The conditions noted are these: 1.0 μg/mL LPS. The procedure:
Compounds 5f and 7k were selected to test the anti-inflammatory potency by measuring the production of inflammatory mediators TNF-α and NO in LPS-induced BV-2 cells[32]^,[33]. • Cytotoxicity of compounds 5f and 7k on BV-2 cells. Firstly, the cytotoxicity of compounds 5f and 7k were tested using an MTT assay. […] In inhibition of LPS-induced, NO production was tested through the Griess reaction method. […] In addition, to further investigate the effects of compounds 5f and 7k on LPS-induced TNF-α production in BV-2 cells, the enzyme-linked immunosorbent assay (ELISA) was used.
Inhibition of LPS-induced TNF-α production was evaluated with an enzyme-linked immunosorbent assay (ELISA). The methods of BV-2 cells culture, adding different concentrations of tested compounds 5f or 7k (1 μM, 3 μM and 9 μM) (10 μL) and LPS (1.0 μg/mL, 10 μL) and setting blank control group were the same as above in cytotoxicity assay. Then, the supernatant of the cell culture solution (50 μL) was added to a 96-well plate and the release of cytokine TNF-α was measured by ELISA according to the instructions of the ELISA kit.
Background: In an ELISA, binding on a coated surface is turned into a signal by an enzyme label.

A further data set deals with AChE PAS (Homo sapiens, UniProt P22303). Nature of the data set: biochemical. It is filed as binding.
A short description of a further data set: in vitro. The conditions noted are these: PAMPA.
Data set [7] deals with normal human hepatocytes cell line (LO2). Nature of the data set: Hepatotoxicity on LO2 cells. The class given is cell-based. Conditions: 2.5 μM to 80.0 μM. The procedure:
(§1) The anti-AD drug tacrine has been forced to withdraw due to severe hepatotoxicity. Thus, the hepatotoxicity of compounds 5f on normal human hepatocytes cell line (LO2) was evaluated using MTT assay. […] Furthermore, the hepatoprotective activity of compound 5f on H2O2-induced live injury was tested using an MTT assay. […]
• Materials. LO2 cells purchased from Wuhan Punosi Life Technology Co., Ltd. 30% H2O2, Trichloroacetic acid (TCA), SRB, DMEM medium (HyClone), Foetal bovine serum (LNSER, article number: S711-001S), Penicillin streptomycin mixture (double antibiotic) (Solarbio), 0.25% trypsin-EDTA digestive juice (Solarbio), DMSO (Solarbio), Potassium dihydrogen phosphate (Xiyu Science Co., Ltd., CAS: 7778-77-0); Ultra-clean workbench (Wuxi Easy Purification Equipment Co., Ltd., model: SW-CJ-VS2); Carbon dioxide incubator (Esco, model: 2014-88759); […]; • Experiment method. (a) Cell culture: cultured in DMEM medium containing 10% FBS and 1% double-antibody, placed in 37 °C, 5% CO2 constant temperature and humidity incubator, changed every 2 days, subcultured when cells were 90% confluent. […] The OD value was measured at 515 nm using a microplate reader. […] After treatment with H2O2 for 6h, the survival rate was measured by the SRB method.

The subject of data set [8] is scopolamine-induced mice memory impairment. Nature of the data set: Step-down passive avoidance task. The conditions noted are these: scopolamine 3 mg/kg.
Protocol: Sixty mice were randomly divided into six groups. […] After 30 min, memory impairment was induced by administering scopolamine (3 mg/kg).
The test system of data set [9] is normal human hepatocytes cell line (LO2). Nature of the data set: Hepatoprotective activity on H2O2-induced LO2 cell injury. The class given is cell-based. The conditions noted are these: LO2 cells, 1000 μM H2O2. The method, then: as §1
• Materials. LO2 cells purchased from Wuhan Punosi Life Technology Co., Ltd. 30% H2O2, Trichloroacetic acid (TCA), SRB, DMEM medium (HyClone), Foetal bovine serum (LNSER, article number: S711-001S), Penicillin streptomycin mixture (double antibiotic) (Solarbio), 0.25% trypsin-EDTA digestive juice (Solarbio), DMSO (Solarbio), Potassium dihydrogen phosphate (Xiyu Science Co., Ltd., CAS: 7778-77-0); Ultra-clean workbench (Wuxi Easy Purification Equipment Co., Ltd., model: SW-CJ-VS2); Carbon dioxide incubator (Esco, model: 2014-88759); […]; • Experiment method. (a) Cell culture: cultured in DMEM medium containing 10% FBS and 1% double-antibody, placed in 37 °C, 5% CO2 constant temperature and humidity incubator, changed every 2 days, subcultured when cells were 90% confluent. (b) Effect of compounds on LO2 proliferation by SRB assay: Discard the culture medium, fix the cells with 10% (m/v) trichloroacetic acid (TCA) 100 μL, and place in a refrigerator at 4 °C for 1 h. The fixing solution was discarded, washed 5 times with distilled water, and dried in an oven. Adding 100 μL SRB solution to each well after drying, and leave it at room temperature for 10-30 min. Discard the supernatant, wash it 5 times with 1% glacial acetic acid water, air dry. Finally, add 100 μL/well of 10 mmol/L Tris-based buffer solution and oscillate on a plate shaker. The OD value was measured at 515 nm using a microplate reader. Cell viability (%) = OD test well/OD blank control well x 100%. (c) Effect of compounds on H2O2-induced LO2 cell injury by SRB assay. […] After treatment with H2O2 for 6h, the survival rate was measured by the SRB method.

Where two headings read alike, the source gives them in different places.

AChE PAS, sequence (P22303 32-614): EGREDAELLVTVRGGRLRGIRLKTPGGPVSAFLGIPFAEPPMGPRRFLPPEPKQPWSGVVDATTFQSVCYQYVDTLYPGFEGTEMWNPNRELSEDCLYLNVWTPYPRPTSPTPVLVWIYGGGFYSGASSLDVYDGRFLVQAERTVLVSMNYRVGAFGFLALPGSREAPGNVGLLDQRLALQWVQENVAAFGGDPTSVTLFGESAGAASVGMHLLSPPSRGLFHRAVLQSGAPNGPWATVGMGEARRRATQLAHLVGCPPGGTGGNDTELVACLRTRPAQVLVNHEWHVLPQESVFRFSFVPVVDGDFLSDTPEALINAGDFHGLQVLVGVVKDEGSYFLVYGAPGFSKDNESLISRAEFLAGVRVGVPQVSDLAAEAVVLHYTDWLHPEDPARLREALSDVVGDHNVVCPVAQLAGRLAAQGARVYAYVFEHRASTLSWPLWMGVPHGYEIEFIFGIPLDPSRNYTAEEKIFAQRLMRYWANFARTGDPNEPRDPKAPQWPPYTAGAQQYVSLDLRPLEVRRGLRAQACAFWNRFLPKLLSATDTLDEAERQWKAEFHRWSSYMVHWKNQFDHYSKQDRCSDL
T1 sequence (P05067 672-713): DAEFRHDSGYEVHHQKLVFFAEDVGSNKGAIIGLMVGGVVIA
T3 sequence (P22303 32-617 isoform P22303-2 limits assumed): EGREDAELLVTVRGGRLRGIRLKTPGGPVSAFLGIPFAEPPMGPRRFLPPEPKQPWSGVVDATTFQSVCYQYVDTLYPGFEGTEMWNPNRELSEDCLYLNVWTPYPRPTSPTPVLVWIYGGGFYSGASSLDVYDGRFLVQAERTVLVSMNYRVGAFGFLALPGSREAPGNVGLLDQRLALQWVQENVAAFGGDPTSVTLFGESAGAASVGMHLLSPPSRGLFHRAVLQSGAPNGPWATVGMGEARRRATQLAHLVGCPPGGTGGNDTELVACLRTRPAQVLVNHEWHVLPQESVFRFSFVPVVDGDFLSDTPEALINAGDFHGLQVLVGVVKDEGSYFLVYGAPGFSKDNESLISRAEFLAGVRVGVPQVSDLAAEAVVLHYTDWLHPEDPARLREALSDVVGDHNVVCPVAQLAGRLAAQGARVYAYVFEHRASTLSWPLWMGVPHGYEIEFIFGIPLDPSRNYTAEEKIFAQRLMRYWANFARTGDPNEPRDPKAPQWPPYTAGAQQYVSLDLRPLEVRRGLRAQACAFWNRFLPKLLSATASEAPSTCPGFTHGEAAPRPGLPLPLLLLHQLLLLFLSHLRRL
T2 sequence (Q9JKC1 24-597): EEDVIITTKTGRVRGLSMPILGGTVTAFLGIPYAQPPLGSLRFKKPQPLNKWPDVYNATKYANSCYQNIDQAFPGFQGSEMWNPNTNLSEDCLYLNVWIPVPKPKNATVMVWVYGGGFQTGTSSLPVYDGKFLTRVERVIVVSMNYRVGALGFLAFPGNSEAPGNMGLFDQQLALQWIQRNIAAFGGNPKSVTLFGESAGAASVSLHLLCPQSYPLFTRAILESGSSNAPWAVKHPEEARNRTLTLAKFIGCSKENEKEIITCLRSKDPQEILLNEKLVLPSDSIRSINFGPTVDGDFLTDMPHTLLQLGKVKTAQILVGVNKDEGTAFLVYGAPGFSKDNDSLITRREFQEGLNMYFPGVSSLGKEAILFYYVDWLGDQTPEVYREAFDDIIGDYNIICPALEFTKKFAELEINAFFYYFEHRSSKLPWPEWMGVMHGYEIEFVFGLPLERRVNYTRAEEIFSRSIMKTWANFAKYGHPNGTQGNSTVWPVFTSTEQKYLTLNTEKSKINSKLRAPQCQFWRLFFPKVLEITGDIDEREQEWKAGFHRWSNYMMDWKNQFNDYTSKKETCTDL
huAChE-induced Aβ1–40 aggregation, sequence (P22303 32-588 isoform P22303-2): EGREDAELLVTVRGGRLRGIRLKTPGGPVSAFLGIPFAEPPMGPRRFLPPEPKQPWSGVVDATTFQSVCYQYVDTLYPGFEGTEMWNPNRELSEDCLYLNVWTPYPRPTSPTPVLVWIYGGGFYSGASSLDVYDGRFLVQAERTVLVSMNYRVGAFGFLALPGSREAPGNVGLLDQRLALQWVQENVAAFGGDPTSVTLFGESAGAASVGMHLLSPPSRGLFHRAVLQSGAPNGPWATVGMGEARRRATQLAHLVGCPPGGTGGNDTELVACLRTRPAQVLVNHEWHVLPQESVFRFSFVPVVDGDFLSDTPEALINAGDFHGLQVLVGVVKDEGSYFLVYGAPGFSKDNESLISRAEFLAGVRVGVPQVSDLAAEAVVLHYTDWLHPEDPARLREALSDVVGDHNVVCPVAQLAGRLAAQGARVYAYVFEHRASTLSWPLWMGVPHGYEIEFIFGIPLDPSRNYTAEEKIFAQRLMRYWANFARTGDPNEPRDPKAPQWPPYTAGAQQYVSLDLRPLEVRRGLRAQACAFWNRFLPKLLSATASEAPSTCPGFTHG
Protocol for ratBuChE: as §3

Consider “7-((6-(benzyl(ethyl)amino)hexyl)oxy)-2–(4-((6-(benzyl(ethyl)amino)hexyl)oxy)phenyl)-5-hydroxychroman-4-one [Compound 7k]”, for which the “Inhibition of huAChE-induced Aβ1–40 aggregation (%)” value in [1] worked out at 43.4 ± 0.43%. Moreover, the “Inhibition of Aβ1–42 aggregation, Cu^2+-induced (%)” value at Aβ1–42 [2] is 68.7 ± 0.46%. Besides, the IC50 (usually the concentration that gives 50% inhibition) came to 14.8 ± 0.36 µM on ratBuChE (BuChE from rat serum, read-out: IC50 ± SD ratBChE) and 0.57 ± 0.02 µM on huAChE [3]. This compound also showed an SI on huAChE [3] of 14.4. On Aβ1–42 [4], the “Inhibition of Aβ1–42 aggregation, Self-induced (%)” value came to 43.8 ± 0.51%. Moreover, the “type of AChE inhibition” value at huAChE [5] is given as “mixed-type”. For the same compound, the Ki (commonly the equilibrium dissociation constant of an inhibitor or competing ligand from its target) on huAChE [5] was 0.39 µM. Moreover, the TNF-α production in [6] (1 μM) came out at 1295 pg/mL; in data set [6] (3 μM), 915 pg/mL; in data set [6] (9 μM), 553 pg/mL. Moreover, the “inhibitory rate of TNF-α production” value in data set [6] (1 μM) turned out to be 23.8%; in data set [6] (3 μM) it was 46.2%; in data set [6] (9 μM) it was 67.5%. The “Propidium iodide displacement from AChE PAS (% inhibition)” value is 23.1 ± 1.2% on AChE PAS (10 μM) and 34.3 ± 2.1% at AChE PAS (50 μM).
Consider `CCN(CCCCCOc1cc(O)c2c(c1)OC(c1ccc(O)cc1)CC2=O)Cc1ccccc1` (stereo not shown) [Compound 5f, 7-((5-(benzyl(ethyl)amino)pentyl)oxy)-5-hydroxy-2–(4-hydroxyphenyl)chroman-4-one], for which the “Inhibition of huAChE-induced Aβ1–40 aggregation (%)” value in data set [1] is 51.7 ± 0.75%. In addition, the inhibition at 25 µM at Aβ1–42 [2] came out at 73.5 ± 0.25%; at Aβ1–42 [4] it was 62.1 ± 0.38%. The Papp (commonly a coefficient for how fast a substance crosses the barrier) at 100 μg/mL in “in vitro” turned out to be 6.9 ± 0.36 ×10⁻⁶ cm/s. In data set [7], the “LO2 cell viability (hepatotoxicity)” value is listed as “did not show an obvious change until the concentration increased to 40.0 μM”. For the same compound, the IC50 against ratBuChE was found to be 16.9 ± 0.27 µM; on huAChE [3], 0.91 ± 0.02 µM. On huAChE [3], the SI worked out at 6.9. Further, the “type of AChE inhibition” value at huAChE [5] is recorded as “mixed-type”. At huAChE [5], the Ki was determined as 0.74 µM. In addition, the figures for the TNF-α production in data set [6] (1 μM), in [6] (3 μM) and in [6] (9 μM) were 1130 pg/mL, 728 pg/mL and 394 pg/mL, respectively. In addition, in data set [6] (Mus musculus, BV-2, 1 μM, read-out: inhibitory rate of TNF-α production), the inhibition at 1 µM turned out to be 33.5%. Also, the inhibition at 3 µM in data set [6] (Mus musculus, BV-2, 3 μM, read-out: inhibitory rate of TNF-α production) is 57.2%. Moreover, the inhibition at 9 µM in [6] (Mus musculus, BV-2, 9 μM, read-out: inhibitory rate of TNF-α production) was determined as 76.8%. Moreover, the figures for the step-down latency in data set [8] (1.9 mg/kg), in [8] (5.7 mg/kg) and in data set [8] (17.1 mg/kg) were 153.7 s, 183.4 s and 207.8 s, respectively. In addition, in data set [9] (L02, 5.0 μM), the viability – broadly, a read-out of living cells in per cent, often relative to untreated cells – at 5 µM was determined as 65.2%. The compound further gave a viability at 10 µM in data set [9] (L02, 10.0 μM) of 69.7%. Moreover, the viability at 20 µM in data set [9] (L02, 20.0 μM) stood at 79.4%. In addition, the inhibition at 10 µM at AChE PAS (10 μM, read-out: Propidium iodide displacement from AChE PAS (% inhibition)) came to 25.7 ± 1.9%. The inhibition at 50 µM on AChE PAS (50 μM, read-out: Propidium iodide displacement from AChE PAS (% inhibition)) was 36.9 ± 3.5%.
